# Residue numbers refer to the chain shown, from its start.
# Assays:
# Format in all cases: cell-based
# WT 5-HT3A receptor = target: T1, WT 5-HT3A receptor (Mus musculus, UniProt P23979); assay: FlexStation membrane potential dye, 5-HT response, WT receptor in HEK293 cells; details: mean and SEM, n ≥ 3
# T1 construct: expressed in transfected cells; host or cells: HEK293
# T1 sequence (P23979 24-483 isoform P23979-2 limits assumed): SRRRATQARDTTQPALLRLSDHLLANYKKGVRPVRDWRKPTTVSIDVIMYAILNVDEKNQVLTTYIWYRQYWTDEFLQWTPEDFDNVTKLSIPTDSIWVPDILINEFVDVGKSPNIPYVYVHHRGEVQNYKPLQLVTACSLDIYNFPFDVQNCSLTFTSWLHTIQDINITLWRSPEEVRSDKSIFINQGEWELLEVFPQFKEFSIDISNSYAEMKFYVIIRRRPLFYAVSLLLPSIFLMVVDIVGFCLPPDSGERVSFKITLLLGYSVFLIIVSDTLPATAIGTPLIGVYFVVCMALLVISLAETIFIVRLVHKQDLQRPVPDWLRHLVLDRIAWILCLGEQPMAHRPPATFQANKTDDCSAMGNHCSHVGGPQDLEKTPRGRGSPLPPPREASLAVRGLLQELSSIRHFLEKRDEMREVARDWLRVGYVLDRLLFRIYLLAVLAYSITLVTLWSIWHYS
# Method: (§1) The mouse 5-HT3A cDNA (Q6J1J7) in pcDNA3.1 (for HEK cell transfection) or pGEMHE (for RNA production) was modified by QuikChange site-directed mutagenesis (Agilent Technologies) to create point mutants (verified by sequencing).
# (§2) Human embryonic kidney (HEK) 293 cells were maintained at 37 °C at 5% CO2 in a humidified atmosphere, in Dulbecco's Modified Eagle's Medium/Nutrient Mix F12 (1:1) (Invitrogen, Paisley, UK) with GlutaMAX^TM and 10% fetal bovine serum (GE Healthcare) (DMEM/FBS) and passaged when confluent.
# (§3) As described previously (Price and Lummis, [2005]) cells were incubated for 45 min with fluorescent membrane potential-sensitive dye (Membrane Potential Blue kit, Molecular Devices) diluted in Flex buffer (10 mM HEPES, 115 mM NaCl, 1 mM KCl, 1 mM CaCl2, 1 mM MgCl2, and 10 mM glucose, pH 7.4), and subsequently assayed at room temperature for 180 s, with readings every 2 s. […] (log of the concentration of ligand), a is the minimum response, b is the maximum response, and nH is the Hill slope.
# 5-HT3A receptor K255A = target: T2, 5-HT3A receptor K255A (Mus musculus, UniProt P23979, K282A); assay: FlexStation membrane potential dye, 5-HT response, K255A receptor in HEK293 cells; design: expressed in transfected cells; host or cells: HEK293; details: mean and SEM, n ≥ 3
# T2 sequence (P23979 24-489 K282A): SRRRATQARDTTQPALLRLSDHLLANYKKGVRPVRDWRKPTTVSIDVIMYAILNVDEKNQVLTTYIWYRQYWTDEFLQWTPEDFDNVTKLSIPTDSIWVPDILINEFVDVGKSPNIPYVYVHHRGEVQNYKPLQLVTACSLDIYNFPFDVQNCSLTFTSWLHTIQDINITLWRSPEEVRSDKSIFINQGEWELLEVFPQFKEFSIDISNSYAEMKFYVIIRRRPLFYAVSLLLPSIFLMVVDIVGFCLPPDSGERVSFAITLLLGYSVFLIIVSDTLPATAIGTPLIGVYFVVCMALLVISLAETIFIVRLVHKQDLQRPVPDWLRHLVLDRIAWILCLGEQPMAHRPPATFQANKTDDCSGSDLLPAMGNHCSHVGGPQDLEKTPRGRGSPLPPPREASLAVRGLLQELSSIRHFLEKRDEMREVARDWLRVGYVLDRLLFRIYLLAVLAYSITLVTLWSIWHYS
# Method: as §1, §2, §3
# 5-HT3A receptor D238A = target: T3, 5-HT3A receptor D238A (Mus musculus, UniProt P23979, D265A); assay: Two-electrode voltage clamp, 5-HT response, D238A receptor in Xenopus oocytes; design: key: Mutants that did not respond in the functional assay are marked as non functional (NF)
# T3 sequence (P23979 24-489 D265A): T2 sequence (P23979 24-489 K282A) with D242A, A259K
# Method: as §1
# Xenopus laevis oocytes from EcoCyte Biosciences (Austin Texas) were injected with 100 pg cRNA (generated with the ThermoFisher mMESSAGE mMACHINE T7 transcription kit) and left in injection media [88 mM NaCl, 2.4 mM NaHCO3, 1 mM KCl, 0.82 mM MgSO4 ·7H20, 5 mM Tris-HCl, 0.33 mM Ca(NO3)2·4H2O, 0.41 mM CaCl2·2H2O, 2.51 mM sodium pyruvate, 0.12 mg/ml theophylline, 0.05 mg/ml gentamicin, pH 7.5] at 16 °C for 24 h. […] The holding potential was −60 mV, using glass microelectrodes with a resistance of approximately 1 MΩ backfilled with 3M KCl.
# 5-HT3A receptor C290A = target: T4, 5-HT3A receptor C290A (Mus musculus, UniProt P23979, C317A); assay: FlexStation membrane potential dye, 5-HT response, C290A receptor in HEK293 cells; design: expressed in transfected cells; host or cells: HEK293; details: mean and SEM, n ≥ 3
# T4 sequence (P23979 24-489 C317A): T2 sequence (P23979 24-489 K282A) with A259K, C294A
# Method: as §1, §2, §3
smiles,measurement,setting,value
NCCc1c[nH]c2ccc(O)cc12 [5-HT],nH (Hill slope),WT 5-HT3A receptor,3.7 ± 0.3
same,nH,5-HT3A receptor K255A,2.6± 0.1
same,pEC50,5-HT3A receptor D238A,NF
same,nH,5-HT3A receptor C290A,1.2 ± 0.2

# — paper PMC8119899, “A Single Mutation in the Outer Lipid-Facing Helix of a Pentameric Ligand-Gated Ion Channel Affects Channel Function Through a Radially-Propagating Mechanism” (Frontiers in Molecular Biosciences, 2021)
